ChEMBL document CHEMBL3045921, “Synthesis and Acaricidal Activity of Pyrazole-5-carboxamide Derivatives” (1991)
≈ marks a conversion by molar mass, not a printed value.

How the values were obtained:
Assay type in all cases: functional
Panonychus citri [1] = test: Ovicidal activity against Panonychus citri in mandarin orange leaf assessed as egg mortality at 25 degC measured after 7 days; conditions: 168 h
Tetranychus urticae [2] = test: Adulticidal activity against Tetranychus urticae (two-spotted spider mite) in kidney bean leaf assessed as mortality at 25 degC measured after 2 days; conditions: 48 h
Tetranychus urticae [3] = test: Ovicidal activity against Tetranychus urticae (two-spotted spider mite) in kidney bean leaf assessed as egg mortality at 25 degC measured after 7 days; conditions: 168 h
Panonychus citri [4] = test: Adulticidal activity against Panonychus citri in mandarin orange leaf assessed as mortality at 25 degC measured after 2 days; conditions: 48 h
Tetranychus urticae [5] = test: Acaricidal activity against Tetranychus urticae (two-spotted spider mite) in kidney bean leaf assessed as mortality at 200 ppm at 25 degC measured after 5 days; conditions: 120 h
Tetranychus urticae [6] = test: Acaricidal activity against Tetranychus urticae (two-spotted spider mite) in kidney bean leaf assessed as mortality at 3.1 ppm at 25 degC measured after 5 days; conditions: 120 h
Tetranychus urticae [7] = test: Acaricidal activity against Tetranychus urticae (two-spotted spider mite) in kidney bean leaf assessed as mortality at 500 ppm at 25 degC measured after 5 days; conditions: 120 h
Tetranychus urticae [8] = test: Acaricidal activity against Tetranychus urticae (two-spotted spider mite) in kidney bean leaf assessed as mortality at 50 ppm at 25 degC measured after 5 days; conditions: 120 h
Tetranychus urticae [9] = test: Acaricidal activity against Tetranychus urticae (two-spotted spider mite) in kidney bean leaf assessed as mortality at 12.5 ppm at 25 degC measured after 5 days; conditions: 120 h

Row | Structure (SMILES) | LC50 (Panonychus citri [1]) [µg/mL] | LC50 (Tetranychus urticae [2]) [µg/mL] | LC50 (Tetranychus urticae [3]) [µg/mL] | LC50 (Panonychus citri [4]) [µg/mL] | mortality at 200 ppm (Tetranychus urticae [5]) [%] | mortality at 3.1 ppm (Tetranychus urticae [6]) [%] | mortality at 500 ppm (Tetranychus urticae [7]) [%] | mortality at 50 ppm (Tetranychus urticae [8]) [%] | mortality at 12.5 ppm (Tetranychus urticae [9]) [%]
1 | CCc1nn(C)c(C(=O)NCc2ccc(C(C)(C)C)cc2)c1Br | 10 (≈ 26.4 µM) | 7.1 (≈ 18.8 µM) | 1.4 (≈ 3.7 µM) | 0.59 (≈ 1.56 µM) |  |  |  |  | 
2 | CCc1nn(C)c(C(=O)NCc2ccc(C3CC3)cc2)c1Cl |  |  |  |  | 0 | 0 | 30 | 0 | 0
3 | Cc1nn(C)c(C(=O)NCc2ccc(C(C)(C)C)cc2)c1C | 36 (≈ 120 µM) | 7.5 (≈ 25 µM) | 8.8 (≈ 29.4 µM) | 6.1 (≈ 20.4 µM) | 100 | 0 | 100 | 100 | 100
4 | Cc1nn(C)c(C(=O)NCc2ccc(C(C)(C)C)cc2)c1C#N |  |  |  |  | 0 | 0 | 0 | 0 | 0
5 | Cc1nn(C)c(C(=O)NCc2ccc(C(C)(C)C)cc2)c1[N+](=O)[O-] |  |  |  |  | 0 | 0 | 0 | 0 | 0
6 | Cc1nn(C)c(C(=O)NCc2ccc(C(C)(C)C)cc2)c1N |  |  |  |  | 0 | 0 | 0 | 0 | 0
7 | CC(=O)Nc1c(C)nn(C)c1C(=O)NCc1ccc(C(C)(C)C)cc1 |  |  |  |  | 0 | 0 | 0 | 0 | 0
8 | Cn1nc(C2CC2)c(Cl)c1C(=O)NCc1ccc(C(C)(C)C)cc1 |  |  |  |  | 0 | 0 | 30 | 0 | 0
9 | CCCCc1nn(C)c(C(=O)NCc2ccc(C(C)(C)C)cc2)c1Cl |  |  |  |  | 0 | 0 | 0 | 0 | 0
10 | CC(C)Cc1nn(C)c(C(=O)NCc2ccc(C(C)(C)C)cc2)c1Cl |  |  |  |  | 0 | 0 | 0 | 0 | 0
11 | Cn1nc(-c2ccccc2)c(Cl)c1C(=O)NCc1ccc(C(C)(C)C)cc1 |  |  |  |  | 0 | 0 | 0 | 0 | 0
12 | CCc1nn(C)c(C(=O)NCc2ccccc2)c1Cl |  |  |  |  | 0 | 0 | 0 | 0 | 0
13 | CCc1nn(C)c(C(=O)NCc2ccc(C)cc2)c1Cl |  |  |  |  | 0 | 0 | 0 | 0 | 0
14 | CCc1ccc(CNC(=O)c2c(Cl)c(CC)nn2C)cc1 |  |  |  |  | 0 | 0 | 30 | 0 | 0
15 | Cc1nn(C)c(C(=O)NCc2ccc(C(C)(C)C)cc2)c1Br | 17 (≈ 46.7 µM) | 9.8 (≈ 26.9 µM) | 3 (≈ 8.24 µM) | 4 (≈ 11 µM) | 100 | 0 | 100 | 100 | 30
16 | Cc1nn(C)c(C(=O)NCc2ccc(C(C)(C)C)cc2)c1Cl | 9.9 (≈ 31 µM) | 7.7 (≈ 24.1 µM) | 2.4 (≈ 7.5 µM) | 3.1 (≈ 9.69 µM) | 100 | 30 | 100 | 100 | 100
17 | CCc1nn(C)c(C(=O)NCc2ccc(C(C)(C)C)cc2)c1Cl [TEBUFENPYRAD] | 3.9 (≈ 11.7 µM) | 3.7 (≈ 11.1 µM) | 0.96 (≈ 2.88 µM) | 0.5 (≈ 1.5 µM) | 100 | 100 | 100 | 100 | 100
